In US11304939B2, “Methods for treating oral cancers” (Chang Gung University, priority 2020, dated 2022):

Assays:
SAS cells [1] = experiment: MTT cell viability assay, SAS cells; assay type: cell-based; conditions: 48 hours; for cell viability / proliferation (MTT): vs vehicle control
Protocol: (§1) For cell viability assay, approximately 5×10^4 cells were seeded into each well of a 96-well plate, and treated with vehicle control or inhibitors at the indicated concentrations for 48 hours in complete medium, followed by MTT viability assay. The absorbance was read at 540 nm in a multiwell spectrophotometer (SpectraMax M2; Molecular Devices, USA). All samples were run in triplicate. For apoptosis assay, cells were plated in 6-well dishes, and treated with vehicle control or various inhibitors at the indicated concentrations for 48 hours. Cells were then harvested, washed with PBS, and stained with 2 μl an FITC-conjugated Annexin V antibody (Invitrogen, USA) and 50 μg/ml propidium iodide (Sigma-Aldrich, USA), followed by flow cytometry analysis (Attune NxT; Invitrogen, USA) and data analysis by FlowJo software (Tree Star, Inc.).

OEC-M1 cells [2] = experiment: MTT cell viability assay, OEC-M1 cells; assay type: cell-based; conditions: 48 hours; for cell viability / proliferation (MTT): vs vehicle control
Protocol: as §1

SAS cells [3] = experiment: colony-forming assay, SAS cells; assay type: cell-based
OEC-M1 cells [4] = experiment: colony-forming assay, OEC-M1 cells; assay type: cell-based
SAS cells [5] = experiment: apoptosis assay (Annexin V and PI staining), SAS cells; assay type: cell-based; conditions: 48 hours
Protocol: as §1

OC3 cells = experiment: apoptosis assay (Annexin V and PI staining), OC3 cells; assay type: cell-based; conditions: 48 hours
Protocol: as §1

OEC-M1 cells [6] = experiment: apoptosis assay (Annexin V and PI staining), OEC-M1 cells; assay type: cell-based; conditions: 48 hours
Protocol: as §1

SAS cells xenograft = experiment: SAS cell line-derived xenograft (OSCC CDX) tumor growth; assay type: in vivo, NOD/SCID mice
Protocol: NOD/SCID mice and NOD.Cg-Prkdcscid Il2rgtm1Wjl/SzJ (NSG) mice were housed in an animal facility at Chang Gung University. For SAS cell line-derived xenograft (CDX) animal model, SAS cells were prepared in serum-free DMEM (5×10^6 cells per ml). SAS cell suspensions (100 μl) were injected subcutaneously into NOD/SCID mice (6-8 weeks), and tumors were established after 3-4 weeks. Once xenografts reached 300-500 mm^3, mice were randomly divided into the treatment groups or control groups. PF477736 was used at the dose of 10 or 20 mg/kg, and administered intraperitoneally 4 days/week. BYL719 was used at the dose of 25 or 50 mg/kg, and administered orally 5 days/week. Cisplatin was used at the dose of 5 mg/kg, and administered intraperitoneally 2 days/week. During the course of treatment (two to three weeks), the tumor size was monitored twice weekly, and the tumor volumes were calculated.

patient #1 PDX = experiment: OSCC PDX model, patient #1, tumor growth; assay type: in vivo, NSG mice; conditions: PF477736 20 mg/kg; for growth of PDX tumors vs control: Cisplatin 5 mg/kg, combined vs control p=0.0024
Protocol: (§2) For OSCC PDX animal model, three patients of newly diagnosed were recruited, and written consents were obtained in accordance with the protocols approved by the Institutional Review Board of Chang Gung Memorial Hospital. Patient tumor explants were prepared from surgical specimens, and engrafted into NSG mice within 2 hours. Briefly, fresh tumor tissues were rinsed in PBS containing an antibiotic-antimycotic solution (Gibco, USA), and chopped into small pieces (˜1 mm^3). Each NSG mouse was subcutaneously grafted with 50-100 mg tumors in the left flank. When tumors reached 400-500 mm^3 in size, animals were randomly assigned into control and different treatment groups. Treatments for each single drug were the same as those used in the SAS CDX model as described above. For combined treatments, for the combination therapy of Cisplatin and PF477736, Cisplatin was used at the dose of 5 mg/kg, and administered intraperitoneally 2 days/week for one week; whilst PF477736 was used at the dose of 20 mg/kg, and administered intraperitoneally 4 days/week for one week; and for the combination therapy of PF477736 and BYL719, PF477736 was used at the dose of 20 mg/kg, and administered intraperitoneally 4 days/week for one week; whilst BYL719 was used at the dose of 50 mg/kg, and administered orally 5 days/week for two weeks. Tumors were measured with calipers, and the volume was calculated as ½×length×width^2. Three PDX models in total were evaluated for response to single treatments or combined treatments. All animal experiments were approved by the Institutional Animal Care and Use Committee of Chang Gung University.

patient #2 PDX = experiment: OSCC PDX model, patient #2, tumor growth; assay type: in vivo, NSG mice; conditions: PF477736 20 mg/kg; for growth of PDX tumors vs control: Cisplatin 5 mg/kg, combined vs control p=0.006
Protocol: as §2

patient #3 PDX = experiment: OSCC PDX model, patient #3, tumor growth; assay type: in vivo, NSG mice; conditions: Cisplatin 5 mg/kg, PF477736 20 mg/kg, combined vs control p=0.03
Protocol: For OSCC PDX animal model, three patients of newly diagnosed were recruited, and written consents were obtained in accordance with the protocols approved by the Institutional Review Board of Chang Gung Memorial Hospital. Patient tumor explants were prepared from surgical specimens, and engrafted into NSG mice within 2 hours. Briefly, fresh tumor tissues were rinsed in PBS containing an antibiotic-antimycotic solution (Gibco, USA), and chopped into small pieces (˜1 mm^3). Each NSG mouse was subcutaneously grafted with 50-100 mg tumors in the left flank. When tumors reached 400-500 mm^3 in size, animals were randomly assigned into control and different treatment groups. Treatments for each single drug were the same as those used in the SAS CDX model as described above. […] Tumors were measured with calipers, and the volume was calculated as ½×length×width^2. Three PDX models in total were evaluated for response to single treatments or combined treatments. […]

CHK1 = molecular target: T1, CHK1 (Homo sapiens, UniProt O14757); experiment: immunoblotting of UV-induced phosphorylation of CHK1 at Ser296 in SAS cells; conditions: SAS cells after UV exposure
T1 sequence (O14757 1-476): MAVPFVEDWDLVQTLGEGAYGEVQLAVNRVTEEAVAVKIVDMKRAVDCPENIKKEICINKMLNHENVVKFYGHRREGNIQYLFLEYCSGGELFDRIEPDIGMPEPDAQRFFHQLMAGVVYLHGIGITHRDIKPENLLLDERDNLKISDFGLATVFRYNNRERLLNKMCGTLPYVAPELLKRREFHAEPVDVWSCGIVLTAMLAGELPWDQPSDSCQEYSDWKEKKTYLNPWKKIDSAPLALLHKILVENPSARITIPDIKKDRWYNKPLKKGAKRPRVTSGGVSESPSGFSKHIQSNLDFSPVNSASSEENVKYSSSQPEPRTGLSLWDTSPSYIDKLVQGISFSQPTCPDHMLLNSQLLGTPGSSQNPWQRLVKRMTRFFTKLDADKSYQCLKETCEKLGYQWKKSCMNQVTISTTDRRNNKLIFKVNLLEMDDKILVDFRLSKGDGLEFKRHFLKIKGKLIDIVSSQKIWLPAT
Protocol: After treatments, whole-cell lysates from each sample were prepared by lysed with RIPA lysis buffer (1% NP—40, 20 mM Tris-HCl (pH 7.5), 150 mM NaCl, 1 mM Na3VO4, 5 mM EDTA (pH 8.0), 10% glycerol, PMSF, and 0.2% protease inhibitor) for 15-30 minutes on ice, and centrifuged at 15,000×g for 20 min at 4° C. Equal amounts of protein from each sample were fractionated by SDS-PAGE, and transferred to a PVDF membrane, which was incubated with the appropriate primary antibody. Proteins were detected with HRP-conjugated secondary antibodies and ECL substrate (PerkinElmer, USA).
On the molecular level, the biochemical effects of the three CHK1 inhibitors in SAS cells were characterized. DNA damage was first induced by UV exposure, and the CHK1 inhibitors were then applied to the injured cells.

AKT = experiment: immunoblotting of phosphorylation of AKT; assay type: cell-based; conditions: after UV exposure
Protocol: After treatments, whole-cell lysates from each sample were prepared by lysed with RIPA lysis buffer (1% NP_40, 20 mM Tris-HCl (pH 7.5), 150 mM NaCl, 1 mM Na3VO4, 5 mM EDTA (pH 8.0), 10% glycerol, PMSF, and 0.2% protease inhibitor) for 15-30 minutes on ice, and centrifuged at 15,000×g for 20 min at 4° C. Equal amounts of protein from each sample were fractionated by SDS-PAGE, and transferred to a PVDF membrane, which was incubated with the appropriate primary antibody. Proteins were detected with HRP-conjugated secondary antibodies and ECL substrate (PerkinElmer, USA).
In the present study, the efficacy of the PI3K inhibitors (e.g., BYL719, GDC-0941, and GSK1059615) toward eliminating OSCC cell lines (including SAS, OEC-M1, and OC3) was examined. First of all, cell proliferation assays after the PI3K inhibitors (i.e., BYL719, GDC-0941, and GSK1059615) treatments were performed, and the results were provided in FIG. 3A. […] The IC50 for BYL719 in the SAS, OC3, and OECM1 cell lines ranged from 8 to 20 μM (FIG. 3A). Another indication for measuring anti-cancer activity was by investigating the colony-forming ability of SAS and OEC-M1 cells treated with BYL719. […] The effects for PI3K inhibitors on the PI3K/AKT/mTOR signaling pathway were studied as well.

[7] = system: SAS, OC3, and OEC-M1 cells; experiment: MTT cell viability assay, one range over three OSCC cell lines; assay type: cell-based; conditions: OECM1
Protocol: as §1

OSCC cells = experiment: apoptosis assay (Annexin V staining), OSCC cells; assay type: cell-based; conditions: increasing concentration
Protocol: as §1

SMILES | cell viability / proliferation (MTT) (SAS cells [1]) | cell viability / proliferation (MTT) (OEC-M1 cells [2]) | colony-forming ability (SAS cells [3]) | colony-forming ability (OEC-M1 cells [4]) | growth of PDX tumors vs control (patient #1 PDX) | growth of PDX tumors vs control (patient #2 PDX) | growth of PDX tumors vs control (patient #3 PDX) | phosphorylation of AKT (AKT) | further results
Cn1cc(-c2[nH]c3cc(NC(=O)[C@H](N)C4CCCCC4)cc4c3c2C=NNC4=O)cn1 [PF477736, (R)-2-amino-2-cyclohexyl-N-(2-(1-methyl-1H-pyrazol-4-yl)-6-oxo-5,6-dihydro-1H-[1,2]diazepino[4,5,6-cd]indol-8-yl)acetamide] | dose-dependent inhibition | dose-dependent inhibition | significantly impaired the colony-forming ability | significantly impaired the colony-forming ability | partially but not significantly inhibit the growth | partially but not significantly inhibit the growth | partially but not significantly inhibit the growth | – | IC50 (SAS cells [1]; MTT, read-out: half-maximal inhibitory concentration (IC50)): 120 to 400 nM; IC50 (OEC-M1 cells [2]; OECM1, MTT, read-out: half-maximal inhibitory concentration (IC50)): 10 µM; cell apoptosis (Annexin V and PI staining) (SAS cells [5]): significantly exacerbated cell apoptosis; cell apoptosis (Annexin V and PI staining) (OC3 cells): significantly exacerbated cell apoptosis; cell apoptosis (Annexin V and PI staining) (OEC-M1 cells [6]): significantly exacerbated cell apoptosis; tumor growth vs control (SAS cells xenograft; 10 mg/kg intraperitoneally 4 days/week, p=0.083): could barely suppress tumor growth; tumor growth vs control (SAS cells xenograft; 20 mg/kg intraperitoneally 4 days/week, p=0.081): could barely suppress tumor growth; phosphorylation of CHK1 at Ser296 (CHK1): specifically reduce phosphorylation of CHK1
O=C1NC(=O)/C(=C/c2ccc3nccc(-c4ccncc4)c3c2)S1 [GSK1059615, (Z)-5-((4-(pyridin-4-yl)quinolin-6-yl)methylene)thiazolidine-2,4-dione] | clear reduction in proliferation | clear reduction in proliferation | – | – | – | – | – | specifically inhibited phosphorylation of AKT | –
N.N.[Cl][Pt][Cl] [Cisplatin] | – | – | – | – | partially but not significantly inhibit the growth | partially but not significantly inhibit the growth | partially but not significantly inhibit the growth | – | tumor growth vs control (SAS cells xenograft; 5 mg/kg intraperitoneally 2 days/week, p=0.03): exhibited an ability to inhibit tumor growth
Cc1nc(NC(=O)N2CCC[C@H]2C(N)=O)sc1-c1ccnc(C(C)(C)C(F)(F)F)c1 [BYL719, Alpelisib] | clear reduction in proliferation | clear reduction in proliferation | compromised in a dose-dependent manner | compromised in a dose-dependent manner | – | – | – | specifically inhibited phosphorylation of AKT | IC50 [7]: 8 to 20 µM; cell apoptosis (Annexin V staining) (OSCC cells): gradually elevation in apoptosis; tumor growth vs control (SAS cells xenograft; 50 mg/kg orally 5 days/week, p=0.011): significantly suppressed tumor growth; tumor growth vs control (patient #1 PDX; BYL719 50 mg/kg, monotherapy p=0.66, combined p=0.844): could not inhibit tumor growth; tumor growth vs control (patient #2 PDX; BYL719 50 mg/kg, monotherapy p=0.16, combined p=0.036): slightly inhibited tumor growth
CS(=O)(=O)N1CCN(Cc2cc3nc(-c4cccc5[nH]ncc45)nc(N4CCOCC4)c3s2)CC1 [GDC-0941, Pictilisib] | clear reduction in proliferation | clear reduction in proliferation | – | – | – | – | – | specifically inhibited phosphorylation of AKT | –
COc1cccc(OCCCN)c1-c1cc(Nc2cnc(C#N)cn2)n[nH]1 [LY2606368, Prexasertib] | dose-dependent inhibition | dose-dependent inhibition | – | – | – | – | – | – | –
